The values that follow are results of earlier work, collected in patent US20090192128A1 (priority 2005, published 2009).

Counter-ions that a name gives are not always drawn.

For the compound `O=[N+]([O-])O[C@H]1CO[C@H]2[C@@H]1OC[C@H]2O[N+](=O)[O-]` [Diluted isosorbide dinitrate, 1,4,3,6-dianhydro-D-glucitol-2,5-dinitrate], the solubility in water entry is reported as “sparingly soluble”. Further, the “solubility in organic solvents” value (organic solvents such as ethanol, ether and chloroform) is “freely soluble”.

With `NNc1nncc2ccccc12` [Hydralazine hydrochloride, hydralazine hydrochloride], the solubility in water result was “soluble”. The solubility in alcohol result (alcohol) was “slightly soluble”. For the same compound, the solubility in ether entry (ether) was “very slightly soluble”.
